Reference: paper PMC5218480 (PLoS ONE, 2017)

System: MV-4-11 cells
Test: Gene expression microarray analysis (Affymetrix PrimeView) and GSEA
Format: cell-based, human
Parameters: RFU PODN (11730768_x_at) / Fold change /veh PODN (11730768_x_at) / RFU LINC00158 (11744669_a_at) / Fold change /veh LINC00158 (11744669_a_at) / RFU DUSP10 (11751237_a_at) / Fold change /veh DUSP10 (11751237_a_at) / RFU ID3 (11757404_x_at) / Fold change /veh ID3 (11757404_x_at) / RFU PLEKHG5 (11737974_s_at) / Fold change /veh PLEKHG5 (11737974_s_at) / RFU LRRC4B (11730491_at) / Fold change /veh LRRC4B (11730491_at) / RFU GIMAP4 (11747438_a_at) / Fold change /veh GIMAP4 (11747438_a_at) / RFU KRT8 (11758183_x_at) / Fold change /veh KRT8 (11758183_x_at) / RFU CNN1 (11734310_a_at) / Fold change /veh CNN1 (11734310_a_at) / RFU VPS37D (11726825_at) / Fold change /veh VPS37D (11726825_at) / RFU C10orf10 (11716522_x_at) / Fold change /veh C10orf10 (11716522_x_at) / RFU KIR2DL2 /// KIR2DL4 /// KIR2DL5A /// KIR2DL5B /// KIR2DS1 /// KIR2DS2 /// KIR2DS3 /// KIR2DS4 /// KIR3DL3 /// KIR3DL3 /// KIR3DS1 (11738374_at) / Fold change /veh KIR2DL2 /// KIR2DL4 /// KIR2DL5A /// KIR2DL5B /// KIR2DS1 /// KIR2DS2 /// KIR2DS3 /// KIR2DS4 /// KIR3DL3 /// KIR3DL3 /// KIR3DS1 (11738374_at) / RFU C1QL1 (11718748_at) / Fold change /veh C1QL1 (11718748_at) / RFU TMPRSS4 (11747572_a_at) / Fold change /veh TMPRSS4 (11747572_a_at) / RFU HAMP (11756126_x_at) / Fold change /veh HAMP (11756126_x_at) / RFU RNFT2 (11725882_a_at) / Fold change /veh RNFT2 (11725882_a_at) / RFU NR4A2 (11747474_a_at) / Fold change /veh NR4A2 (11747474_a_at) / RFU ABCC12 (11746883_a_at) / Fold change /veh ABCC12 (11746883_a_at) / RFU TMEM136 (11760407_x_at) / Fold change /veh TMEM136 (11760407_x_at) / RFU CLDN22 /// WWC2 (11732394_at) / Fold change /veh CLDN22 /// WWC2 (11732394_at) / RFU HLA-DPB1 (11760878_x_at) / Fold change /veh HLA-DPB1 (11760878_x_at) / RFU SPINT1 (11716480_a_at) / Fold change /veh SPINT1 (11716480_a_at) / RFU GAP43 (11754022_s_at) / Fold change /veh GAP43 (11754022_s_at) / RFU A4GNT (11735810_at) / Fold change /veh A4GNT (11735810_at) / RFU PRB3 (11715151_x_at) / Fold change /veh PRB3 (11715151_x_at) / RFU TUBB4B (11761932_at) / Fold change /veh TUBB4B (11761932_at) / RFU CAPN14 (11732068_a_at) / Fold change /veh CAPN14 (11732068_a_at) / RFU TMCC2 (11721928_a_at) / Fold change /veh TMCC2 (11721928_a_at) / RFU IRGQ (11745062_a_at) / Fold change /veh IRGQ (11745062_a_at) / RFU FAM174B (11720279_a_at) / Fold change /veh FAM174B (11720279_a_at) / RFU TMPRSS4 (11748680_a_at) / Fold change /veh TMPRSS4 (11748680_a_at) / RFU FAM212B (11763350_a_at) / Fold change /veh FAM212B (11763350_a_at) / RFU PLEKHG5 (11743358_a_at) / Fold change /veh PLEKHG5 (11743358_a_at) / RFU ZSCAN30 (11745921_a_at) / Fold change /veh ZSCAN30 (11745921_a_at) / RFU CMKLR1 (11741424_a_at) / Fold change /veh CMKLR1 (11741424_a_at) / RFU LOC101060620 /// MAPK8IP1 (11723275_at) / Fold change /veh LOC101060620 /// MAPK8IP1 (11723275_at) / RFU SPTSSB (11747773_x_at) / Fold change /veh SPTSSB (11747773_x_at) / RFU PRSS12 (11739890_at) / Fold change /veh PRSS12 (11739890_at) / RFU BIN1 (11741810_x_at) / Fold change /veh BIN1 (11741810_x_at) / RFU WNT11 (11732464_a_at) / Fold change /veh WNT11 (11732464_a_at) / RFU C10orf10 (11716521_a_at) / Fold change /veh C10orf10 (11716521_a_at) / RFU C5orf56 (11738089_at) / Fold change /veh C5orf56 (11738089_at) / RFU CYB561 (11721691_x_at) / Fold change /veh CYB561 (11721691_x_at) / RFU ANKRD19P (11752326_a_at) / Fold change /veh ANKRD19P (11752326_a_at) / RFU OR2T12 /// OR2T33 /// OR2T8 (11738714_s_at) / Fold change /veh OR2T12 /// OR2T33 /// OR2T8 (11738714_s_at) / RFU VCAN (11748164_a_at) / Fold change /veh VCAN (11748164_a_at) / RFU JSRP1 (11732532_at) / Fold change /veh JSRP1 (11732532_at) / RFU KRTAP10-11 (11738290_x_at) / Fold change /veh KRTAP10-11 (11738290_x_at) / RFU MYO3A (11730013_a_at) / Fold change /veh MYO3A (11730013_a_at) / RFU EBF3 (11725865_a_at) / Fold change /veh EBF3 (11725865_a_at) / RFU CAMK2N1 (11719241_x_at) / Fold change /veh CAMK2N1 (11719241_x_at) / RFU C5orf56 (11738088_a_at) / Fold change /veh C5orf56 (11738088_a_at) / RFU OLFML3 (11715873_a_at) / Fold change /veh OLFML3 (11715873_a_at) / RFU LOC100653217 /// NTM (11731650_a_at) / Fold change /veh LOC100653217 /// NTM (11731650_a_at) / RFU MAPK11 (11762145_a_at) / Fold change /veh MAPK11 (11762145_a_at) / RFU FIZ1 (11724087_x_at) / Fold change /veh FIZ1 (11724087_x_at) / RFU OASL (11726364_x_at) / Fold change /veh OASL (11726364_x_at) / RFU SOX15 (11748057_x_at) / Fold change /veh SOX15 (11748057_x_at) / RFU CD79A (11719716_a_at) / Fold change /veh CD79A (11719716_a_at) / RFU HIST1H1D (11736915_at) / Fold change /veh HIST1H1D (11736915_at) / RFU CASKIN2 (11723855_a_at) / Fold change /veh CASKIN2 (11723855_a_at) / RFU LOC730098 (11760151_x_at) / Fold change /veh LOC730098 (11760151_x_at) / RFU OR4N2 (11742367_at) / Fold change /veh OR4N2 (11742367_at) / RFU PRRT2 (11749266_a_at) / Fold change /veh PRRT2 (11749266_a_at) / RFU SNX32 (11753110_a_at) / Fold change /veh SNX32 (11753110_a_at) / RFU CDHR5 (11726645_a_at) / Fold change /veh CDHR5 (11726645_a_at) / RFU RCAN1 (11760418_a_at) / Fold change /veh RCAN1 (11760418_a_at) / RFU FAM167A (11723789_a_at) / Fold change /veh FAM167A (11723789_a_at) / RFU FAM26E (11764081_at) / Fold change /veh FAM26E (11764081_at) / RFU ISYNA1 (11749810_s_at) / Fold change /veh ISYNA1 (11749810_s_at) / RFU ACY1 (11761880_at) / Fold change /veh ACY1 (11761880_at) / RFU 11764098_at / Fold change /veh 11764098_at / RFU SAMD14 (11745864_x_at) / Fold change /veh SAMD14 (11745864_x_at) / RFU NPB (11741838_a_at) / Fold change /veh NPB (11741838_a_at) / RFU TMPRSS6 (11731388_a_at) / Fold change /veh TMPRSS6 (11731388_a_at) / RFU KRTAP10-2 (11738614_at) / Fold change /veh KRTAP10-2 (11738614_at) / RFU ARHGAP8 /// PRR5-ARHGAP8 (11727945_x_at) / Fold change /veh ARHGAP8 /// PRR5-ARHGAP8 (11727945_x_at) / RFU KRTAP5-7 /// NADSYN1 (11734609_at) / Fold change /veh KRTAP5-7 /// NADSYN1 (11734609_at) / RFU RASL12 (11751679_a_at) / Fold change /veh RASL12 (11751679_a_at) / RFU CDKN2B (11736163_a_at) / Fold change /veh CDKN2B (11736163_a_at) / RFU PRF1 (11729649_at) / Fold change /veh PRF1 (11729649_at) / RFU, ZNF638 /// ZNF638-IT1 / Fold change vs veh, ZNF638 /// ZNF638-IT1 / RFU, PANK3 / Fold change vs veh, PANK3 / RFU, SH3YL1 / Fold change vs veh, SH3YL1 / RFU, ZEB2 / Fold change vs veh, ZEB2 / RFU, NRIP1 / Fold change vs veh, NRIP1 / RFU, PTTG1IP / Fold change vs veh, PTTG1IP / RFU, CAPN2 / Fold change vs veh, CAPN2 / RFU, MED14 / Fold change vs veh, MED14 / RFU, SNORA58 / Fold change vs veh, SNORA58 / RFU, C1orf63 / Fold change vs veh, C1orf63 / RFU, LRRFIP1 / Fold change vs veh, LRRFIP1 / RFU, NDUFAF7 / Fold change vs veh, NDUFAF7 / RFU, SLC12A2 / Fold change vs veh, SLC12A2 / RFU, IBTK / Fold change vs veh, IBTK / RFU, ESF1 / Fold change vs veh, ESF1 / Fold change vs veh, TMEM50B / RFU, TAOK1 / Fold change vs veh, TAOK1 / RFU, ACBD3 / Fold change vs veh, ACBD3 / RFU, TMA16 / Fold change vs veh, TMA16 / RFU, RWDD3 / Fold change vs veh, RWDD3 / RFU, BCAT1 / Fold change vs veh, BCAT1 / RFU, EDEM3 / Fold change vs veh, EDEM3 / RFU, TMEM33 / Fold change vs veh, TMEM33 / RFU, WDR75 / Fold change vs veh, WDR75 / RFU, AHCTF1 / Fold change vs veh, AHCTF1 / RFU, TFRC / Fold change vs veh, TFRC / RFU, ZDHHC17 / Fold change vs veh, ZDHHC17 / RFU, NOM1 / Fold change vs veh, NOM1 / RFU, ARL8B / Fold change vs veh, ARL8B / RFU, ZBTB11 / Fold change vs veh, ZBTB11 / RFU, TAMM41 / Fold change vs veh, TAMM41 / RFU, KIAA1704 /// LOC100996395 / Fold change vs veh, KIAA1704 /// LOC100996395 / RFU, ING1 / Fold change vs veh, ING1 / RFU, TRMT61B / Fold change vs veh, TRMT61B / RFU, FUBP3 / Fold change vs veh, FUBP3 / RFU, TP53 / Fold change vs veh, TP53 / RFU, TNKS2 / Fold change vs veh, TNKS2 / RFU, ZFP14 / Fold change vs veh, ZFP14 / RFU, ACTR2 / Fold change vs veh, ACTR2 / RFU, PPP3R1 / Fold change vs veh, PPP3R1 / RFU, PIK3R1 / Fold change vs veh, PIK3R1 / RFU, HNRNPA1 / Fold change vs veh, HNRNPA1 / RFU, RNF170 / Fold change vs veh, RNF170 / RFU, ZNF28 / Fold change vs veh, ZNF28 / RFU, RNGTT / Fold change vs veh, RNGTT / RFU, OGT / Fold change vs veh, OGT / RFU, BRD1 / Fold change vs veh, BRD1 / RFU, MARS / Fold change vs veh, MARS / RFU, ZNF655 / Fold change vs veh, ZNF655 / RFU, FAHD1 / Fold change vs veh, FAHD1 / RFU, BDP1 / Fold change vs veh, BDP1 / RFU, LRRCC1 / Fold change vs veh, LRRCC1 / RFU, ARID1A / Fold change vs veh, ARID1A / RFU, ZNF146 / Fold change vs veh, ZNF146 / RFU, ZNF330 / Fold change vs veh, ZNF330 / RFU, GPN3 / Fold change vs veh, GPN3 / RFU, C9orf123 / Fold change vs veh, C9orf123 / RFU, N4BP2L2 / Fold change vs veh, N4BP2L2 / RFU, ARFIP1 / Fold change vs veh, ARFIP1 / RFU, FAM179B / Fold change vs veh, FAM179B / RFU, BCL10 / Fold change vs veh, BCL10 / RFU, UHRF1BP1L / Fold change vs veh, UHRF1BP1L / RFU, BET1 / Fold change vs veh, BET1 / RFU, CNOT2 / Fold change vs veh, CNOT2 / RFU, ZNF268 / Fold change vs veh, ZNF268 / Fold change vs veh, ZNF507 / RFU, DGCR2 / Fold change vs veh, DGCR2 / RFU, WDSUB1 / Fold change vs veh, WDSUB1 / Fold change vs veh, HSP90B1 /// MIR3652 / RFU, ADSS / Fold change vs veh, ADSS / RFU, GK / Fold change vs veh, GK / RFU, ZNF148 / Fold change vs veh, ZNF148 / RFU, TAF9 / Fold change vs veh, TAF9 / RFU, SLC1A5 / Fold change vs veh, SLC1A5 / RFU, SLMO2 / Fold change vs veh, SLMO2 / RFU, ABCC4 / Fold change vs veh, ABCC4 / RFU, LOC101060439 /// RAP1B / Fold change vs veh, LOC101060439 /// RAP1B / RFU, RFX7 / Fold change vs veh, RFX7 / RFU, GTPBP10 / Fold change vs veh, GTPBP10 / RFU, CNEP1R1 / Fold change vs veh, CNEP1R1 / RFU, BIVM-ERCC5 /// ERCC5 / Fold change vs veh, BIVM-ERCC5 /// ERCC5 / RFU, ILF3 / Fold change vs veh, ILF3 / RFU 11762660_at / Fold change /veh 11762660_at / RFU VCAN (11757783_s_at) / Fold change /veh VCAN (11757783_s_at) / RFU DDX43 (11728927_at) / Fold change /veh DDX43 (11728927_at) / RFU KRT8 (11758188_x_at) / Fold change /veh KRT8 (11758188_x_at) / RFU NKD1 (11759106_at) / Fold change /veh NKD1 (11759106_at) / RFU SRD5A1 (11742802_a_at) / Fold change /veh SRD5A1 (11742802_a_at) / RFU TPSAB1 /// TPSB2 (11721975_s_at) / Fold change /veh TPSAB1 /// TPSB2 (11721975_s_at) / RFU GSTM3 (11746129_a_at) / Fold change /veh GSTM3 (11746129_a_at) / RFU IL23R (11737362_x_at) / Fold change /veh IL23R (11737362_x_at) / RFU TMEM51 (11727254_a_at) / Fold change /veh TMEM51 (11727254_a_at) / RFU PIWIL2 (11732686_x_at) / Fold change /veh PIWIL2 (11732686_x_at) / RFU ORM1 (11744905_x_at) / Fold change /veh ORM1 (11744905_x_at) / RFU CCDC152 (11743942_at) / Fold change /veh CCDC152 (11743942_at) / RFU ECM1 (11717891_a_at) / Fold change /veh ECM1 (11717891_a_at) / RFU IL23R (11748794_a_at) / Fold change /veh IL23R (11748794_a_at) / RFU TNFAIP8L3 (11732012_x_at) / Fold change /veh TNFAIP8L3 (11732012_x_at) / RFU MBOAT4 (11741988_at) / Fold change /veh MBOAT4 (11741988_at) / RFU 11764193_at / Fold change /veh 11764193_at / RFU TMEM53 (11763286_at) / Fold change /veh TMEM53 (11763286_at) / RFU MAGEB2 (11727129_at) / Fold change /veh MAGEB2 (11727129_at) / RFU TMEM200A (11744735_a_at) / Fold change /veh TMEM200A (11744735_a_at) / RFU CCDC152 (11751479_a_at) / Fold change /veh CCDC152 (11751479_a_at) / RFU FAM211A (11726209_a_at) / Fold change /veh FAM211A (11726209_a_at) / RFU RGS16 (11746705_a_at) / Fold change /veh RGS16 (11746705_a_at) / RFU VCAN (11755009_s_at) / Fold change /veh VCAN (11755009_s_at) / RFU RHOB (11743442_s_at) / Fold change /veh RHOB (11743442_s_at) / RFU RGS16 (11720943_a_at) / Fold change /veh RGS16 (11720943_a_at) / RFU RGS16 (11720944_at) / Fold change /veh RGS16 (11720944_at) / RFU, VPS4B / Fold change vs veh, VPS4B / RFU, CREB1 / Fold change vs veh, CREB1 / RFU, DNAJC13 / Fold change vs veh, DNAJC13 / RFU, GNAQ / Fold change vs veh, GNAQ / RFU, CDK5R1 / Fold change vs veh, CDK5R1 / RFU, ZRANB3 / Fold change vs veh, ZRANB3 / RFU, CUL4A / Fold change vs veh, CUL4A / RFU, CCNY / Fold change vs veh, CCNY / RFU, UFL1 / Fold change vs veh, UFL1 / RFU, COG3 / Fold change vs veh, COG3 / RFU, DIAPH2 / Fold change vs veh, DIAPH2 / RFU, SKA2 / Fold change vs veh, SKA2 / RFU, AFF3 / Fold change vs veh, AFF3 / RFU, LMF1 / Fold change vs veh, LMF1 / RFU, IPO11 / Fold change vs veh, IPO11 / RFU, DFFB / Fold change vs veh, DFFB / RFU, FOXP1 / Fold change vs veh, FOXP1 / RFU, CARD8 / Fold change vs veh, CARD8 / RFU, STRN3 / Fold change vs veh, STRN3 / RFU, ADK / Fold change vs veh, ADK / RFU, RASSF2 / Fold change vs veh, RASSF2 / RFU, WIPF1 / Fold change vs veh, WIPF1 / RFU, LARP1B / Fold change vs veh, LARP1B / RFU, RASA1 / Fold change vs veh, RASA1 / RFU, RB1 / Fold change vs veh, RB1 / RFU, PPFIA1 / Fold change vs veh, PPFIA1 / RFU, MAT2A / Fold change vs veh, MAT2A / RFU, CCT5 / Fold change vs veh, CCT5 / RFU, WDR92 / Fold change vs veh, WDR92 / RFU, CUX1 / Fold change vs veh, CUX1 / RFU, TTC7A / Fold change vs veh, TTC7A / RFU, TMEM135 / Fold change vs veh, TMEM135 / RFU, DEPTOR / Fold change vs veh, DEPTOR / RFU, CPM / Fold change vs veh, CPM / RFU, DNAJB6 / Fold change vs veh, DNAJB6 / RFU, CACNA2D3 / Fold change vs veh, CACNA2D3 / RFU, DTX4 / Fold change vs veh, DTX4 / RFU, TFCP2 / Fold change vs veh, TFCP2 / RFU, GMCL1 /// GMCL1P1 / Fold change vs veh, GMCL1 /// GMCL1P1 / RFU, AEBP2 / Fold change vs veh, AEBP2 / RFU, SNHG1 /// SNORD22 /// SNORD25 /// SNORD26 /// SNORD27 /// SNORD28 /// SNORD29 /// SNORD31 / Fold change vs veh, SNHG1 /// SNORD22 /// SNORD25 /// SNORD26 /// SNORD27 /// SNORD28 /// SNORD29 /// SNORD31 / Fold change (Aza/veh), C12orf56 (ProbeSet 11735607_a_at) / Fold change (ACY-1035/veh), C12orf56 (ProbeSet 11735607_a_at) / Fold change (Aza/veh), FGFR1OP (ProbeSet 11751329_s_at) / Fold change (ACY-1035/veh), FGFR1OP (ProbeSet 11751329_s_at) / Fold change (Aza/veh), VPS36 (ProbeSet 11739960_a_at) / Fold change (ACY-1035/veh), VPS36 (ProbeSet 11739960_a_at) / RFU SYPL1 (11715823_x_at) / Fold change /veh SYPL1 (11715823_x_at) / RFU IGFBP7 (11715501_s_at) / Fold change /veh IGFBP7 (11715501_s_at) / RFU REEP3 (11722064_at) / Fold change /veh REEP3 (11722064_at) / RFU IGLL1 (11728026_x_at) / Fold change /veh IGLL1 (11728026_x_at): dose or concentration left out as unconfirmed
Conditions: MV-4-11 cells, 48 hours

Structure (SMILES): Nc1ccc(-c2cccs2)cc1NC(=O)c1ccc2c(c1)cc(C1CC1)n2CCN1CCOCC1 [ACY-1035]
- RFU 11764098_at: 18.10 RFU
